The values below come from publication PMC4457528, “Identification of Novel Small Molecule Inhibitors of Oncogenic RET Kinase” (PLoS ONE, 2015).

Common to all, as to assay: KinomeScan kinase panel, single concentration 10 µM
Common to all, as to format: binding

In test [1] the target is T1, KinomeScan kinase panel (Homo sapiens, UniProt Q9NQU5).
T1 construct: purchased DiscoveRx (KinomeScan)
Conditions: PAK6, 10 µM; read-out: score (%).

The target of test [2] is T2, KinomeScan kinase panel (Homo sapiens, UniProt Q07912).
T2 construct: purchased DiscoveRx (KinomeScan)
T2 sequence (Q07912 whole entry): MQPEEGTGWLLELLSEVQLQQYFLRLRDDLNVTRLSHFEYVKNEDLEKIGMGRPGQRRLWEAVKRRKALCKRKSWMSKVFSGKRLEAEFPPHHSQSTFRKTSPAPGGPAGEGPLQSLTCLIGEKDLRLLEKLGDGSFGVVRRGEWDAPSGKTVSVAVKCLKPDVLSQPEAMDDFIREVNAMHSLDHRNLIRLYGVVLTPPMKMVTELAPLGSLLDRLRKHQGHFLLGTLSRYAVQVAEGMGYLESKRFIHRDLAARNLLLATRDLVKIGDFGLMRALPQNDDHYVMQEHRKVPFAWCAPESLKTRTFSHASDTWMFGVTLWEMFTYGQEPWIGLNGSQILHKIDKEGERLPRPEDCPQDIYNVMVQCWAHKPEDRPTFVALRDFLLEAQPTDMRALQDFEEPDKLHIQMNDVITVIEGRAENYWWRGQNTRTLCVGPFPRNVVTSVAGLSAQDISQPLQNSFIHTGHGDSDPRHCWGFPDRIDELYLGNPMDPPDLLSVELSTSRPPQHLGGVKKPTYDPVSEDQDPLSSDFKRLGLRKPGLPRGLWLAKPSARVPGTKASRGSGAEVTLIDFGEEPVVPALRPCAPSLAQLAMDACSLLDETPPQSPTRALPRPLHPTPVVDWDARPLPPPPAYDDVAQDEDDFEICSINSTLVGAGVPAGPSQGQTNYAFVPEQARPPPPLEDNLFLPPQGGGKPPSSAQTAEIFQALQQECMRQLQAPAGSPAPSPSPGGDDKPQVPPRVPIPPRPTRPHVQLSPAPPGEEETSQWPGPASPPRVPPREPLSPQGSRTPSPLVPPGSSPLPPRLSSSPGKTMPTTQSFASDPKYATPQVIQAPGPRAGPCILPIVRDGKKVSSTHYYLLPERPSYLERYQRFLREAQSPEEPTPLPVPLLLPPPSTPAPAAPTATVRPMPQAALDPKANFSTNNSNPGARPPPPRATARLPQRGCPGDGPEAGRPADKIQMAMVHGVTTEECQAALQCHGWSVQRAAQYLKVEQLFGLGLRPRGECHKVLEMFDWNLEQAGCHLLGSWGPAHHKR
As to conditions: read-out: score (%).

Test [3] addresses T3, KinomeScan kinase panel (Homo sapiens, UniProt O15264).
T3 construct: purchased DiscoveRx (KinomeScan)
T3 sequence (O15264 1-365): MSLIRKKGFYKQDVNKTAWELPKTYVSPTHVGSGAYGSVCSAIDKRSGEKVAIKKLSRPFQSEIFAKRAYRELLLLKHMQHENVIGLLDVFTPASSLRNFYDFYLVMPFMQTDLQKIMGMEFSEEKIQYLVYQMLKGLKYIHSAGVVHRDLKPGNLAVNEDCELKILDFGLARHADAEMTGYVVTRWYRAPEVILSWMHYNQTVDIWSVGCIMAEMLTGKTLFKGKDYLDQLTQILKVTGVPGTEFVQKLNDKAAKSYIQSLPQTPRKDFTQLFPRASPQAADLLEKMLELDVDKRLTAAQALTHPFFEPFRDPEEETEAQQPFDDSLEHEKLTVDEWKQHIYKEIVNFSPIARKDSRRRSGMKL
As to conditions: p38-delta, 10 µM; read-out: score (%).

The target in test [4] is T4, KinomeScan kinase panel (Homo sapiens, UniProt O75914).
T4 construct: purchased DiscoveRx (KinomeScan)
T4 sequence (O75914 whole entry): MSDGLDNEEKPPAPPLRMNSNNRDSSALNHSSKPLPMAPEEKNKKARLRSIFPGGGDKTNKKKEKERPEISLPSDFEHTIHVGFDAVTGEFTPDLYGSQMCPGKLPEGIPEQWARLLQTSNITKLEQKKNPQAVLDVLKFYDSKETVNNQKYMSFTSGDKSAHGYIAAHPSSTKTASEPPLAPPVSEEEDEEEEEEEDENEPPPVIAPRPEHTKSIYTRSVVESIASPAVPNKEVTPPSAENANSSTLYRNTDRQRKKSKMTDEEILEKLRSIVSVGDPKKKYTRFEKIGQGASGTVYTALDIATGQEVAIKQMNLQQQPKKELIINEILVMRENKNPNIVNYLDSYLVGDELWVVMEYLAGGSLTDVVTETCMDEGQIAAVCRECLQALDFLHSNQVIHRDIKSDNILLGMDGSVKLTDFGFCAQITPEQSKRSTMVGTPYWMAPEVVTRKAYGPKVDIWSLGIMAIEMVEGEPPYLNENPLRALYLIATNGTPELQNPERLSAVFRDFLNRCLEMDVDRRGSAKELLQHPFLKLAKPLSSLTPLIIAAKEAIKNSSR
Conditions: PAK3, 10 µM; read-out: score (%).

The target in test [5] is T5, KinomeScan kinase panel (Homo sapiens, UniProt Q8TD08).
T5 construct: purchased DiscoveRx (KinomeScan)
T5 sequence (Q8TD08 1-544): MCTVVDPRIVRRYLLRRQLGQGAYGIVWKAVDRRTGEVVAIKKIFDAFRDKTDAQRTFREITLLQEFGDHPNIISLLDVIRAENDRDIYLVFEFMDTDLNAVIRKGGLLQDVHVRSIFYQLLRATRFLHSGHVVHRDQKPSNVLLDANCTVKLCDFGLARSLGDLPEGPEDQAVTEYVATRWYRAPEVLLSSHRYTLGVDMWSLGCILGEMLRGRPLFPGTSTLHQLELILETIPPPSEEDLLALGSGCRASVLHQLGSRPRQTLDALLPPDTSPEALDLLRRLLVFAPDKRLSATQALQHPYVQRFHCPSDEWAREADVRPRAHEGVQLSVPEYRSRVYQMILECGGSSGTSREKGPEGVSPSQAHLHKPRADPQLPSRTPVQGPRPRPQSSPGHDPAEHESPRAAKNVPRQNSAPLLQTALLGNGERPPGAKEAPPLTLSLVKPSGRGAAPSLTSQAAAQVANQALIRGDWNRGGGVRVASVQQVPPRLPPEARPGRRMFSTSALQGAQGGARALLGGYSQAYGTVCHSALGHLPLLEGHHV
Conditions: ERK8, 10 µM; read-out: score (%).

Test [6] concerns the target T6, KinomeScan kinase panel (Homo sapiens, UniProt Q14289).
T6 construct: purchased DiscoveRx (KinomeScan)
As to conditions: read-out: score (%).

Test [7] has as its target T7, KinomeScan kinase panel (Homo sapiens, UniProt P57059).
T7 construct: purchased DiscoveRx (KinomeScan)
Conditions: 10 µM.

Test [8] has as its target T8, KinomeScan kinase panel (Homo sapiens, UniProt P42681).
T8 construct: purchased DiscoveRx (KinomeScan)
T8 sequence (P42681 1-527): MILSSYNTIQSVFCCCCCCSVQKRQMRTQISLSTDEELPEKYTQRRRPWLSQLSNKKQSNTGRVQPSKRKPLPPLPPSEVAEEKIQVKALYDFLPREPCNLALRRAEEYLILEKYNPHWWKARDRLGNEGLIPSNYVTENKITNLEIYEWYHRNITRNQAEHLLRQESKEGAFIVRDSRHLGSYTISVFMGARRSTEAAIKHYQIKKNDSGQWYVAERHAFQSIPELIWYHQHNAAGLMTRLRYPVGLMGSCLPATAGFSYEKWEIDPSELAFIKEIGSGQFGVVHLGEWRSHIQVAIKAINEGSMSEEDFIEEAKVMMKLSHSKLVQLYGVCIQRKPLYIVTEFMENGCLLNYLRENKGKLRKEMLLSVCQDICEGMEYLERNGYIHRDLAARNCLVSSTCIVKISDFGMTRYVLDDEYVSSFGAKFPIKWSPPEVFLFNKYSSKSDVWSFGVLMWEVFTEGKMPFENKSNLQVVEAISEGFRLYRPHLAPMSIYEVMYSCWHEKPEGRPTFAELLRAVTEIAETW
As to conditions: kinase TXK; 10 µM; read-out: score (%).

Read-outs that look alike come from different tables or passages of the source.

T6 sequence (Q14289 whole entry): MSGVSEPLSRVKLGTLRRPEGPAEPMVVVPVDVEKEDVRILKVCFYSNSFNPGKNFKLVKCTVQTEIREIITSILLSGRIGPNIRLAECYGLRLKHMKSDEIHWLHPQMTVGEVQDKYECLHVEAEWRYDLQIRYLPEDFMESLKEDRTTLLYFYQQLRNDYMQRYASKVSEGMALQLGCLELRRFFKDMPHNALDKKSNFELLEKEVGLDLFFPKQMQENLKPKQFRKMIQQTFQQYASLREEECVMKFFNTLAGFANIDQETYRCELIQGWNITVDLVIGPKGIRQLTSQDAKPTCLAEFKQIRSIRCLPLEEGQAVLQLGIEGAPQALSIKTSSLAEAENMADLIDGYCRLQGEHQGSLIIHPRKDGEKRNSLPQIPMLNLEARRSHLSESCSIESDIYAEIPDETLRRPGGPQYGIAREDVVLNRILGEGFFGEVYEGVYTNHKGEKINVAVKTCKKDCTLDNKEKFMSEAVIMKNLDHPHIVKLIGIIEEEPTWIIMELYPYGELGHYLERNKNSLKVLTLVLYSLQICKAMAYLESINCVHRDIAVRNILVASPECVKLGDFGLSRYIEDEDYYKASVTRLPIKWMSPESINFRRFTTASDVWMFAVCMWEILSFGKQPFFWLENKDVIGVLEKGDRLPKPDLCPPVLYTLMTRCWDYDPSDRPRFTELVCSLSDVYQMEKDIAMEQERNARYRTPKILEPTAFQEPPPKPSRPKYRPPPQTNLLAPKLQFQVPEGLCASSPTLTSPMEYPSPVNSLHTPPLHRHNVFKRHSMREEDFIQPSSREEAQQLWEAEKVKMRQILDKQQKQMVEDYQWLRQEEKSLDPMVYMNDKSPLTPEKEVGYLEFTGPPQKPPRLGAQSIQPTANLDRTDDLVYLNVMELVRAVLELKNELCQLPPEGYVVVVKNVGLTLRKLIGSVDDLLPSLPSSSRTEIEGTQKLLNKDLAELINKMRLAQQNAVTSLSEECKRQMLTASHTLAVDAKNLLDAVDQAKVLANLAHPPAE
T7 sequence (P57059 whole entry): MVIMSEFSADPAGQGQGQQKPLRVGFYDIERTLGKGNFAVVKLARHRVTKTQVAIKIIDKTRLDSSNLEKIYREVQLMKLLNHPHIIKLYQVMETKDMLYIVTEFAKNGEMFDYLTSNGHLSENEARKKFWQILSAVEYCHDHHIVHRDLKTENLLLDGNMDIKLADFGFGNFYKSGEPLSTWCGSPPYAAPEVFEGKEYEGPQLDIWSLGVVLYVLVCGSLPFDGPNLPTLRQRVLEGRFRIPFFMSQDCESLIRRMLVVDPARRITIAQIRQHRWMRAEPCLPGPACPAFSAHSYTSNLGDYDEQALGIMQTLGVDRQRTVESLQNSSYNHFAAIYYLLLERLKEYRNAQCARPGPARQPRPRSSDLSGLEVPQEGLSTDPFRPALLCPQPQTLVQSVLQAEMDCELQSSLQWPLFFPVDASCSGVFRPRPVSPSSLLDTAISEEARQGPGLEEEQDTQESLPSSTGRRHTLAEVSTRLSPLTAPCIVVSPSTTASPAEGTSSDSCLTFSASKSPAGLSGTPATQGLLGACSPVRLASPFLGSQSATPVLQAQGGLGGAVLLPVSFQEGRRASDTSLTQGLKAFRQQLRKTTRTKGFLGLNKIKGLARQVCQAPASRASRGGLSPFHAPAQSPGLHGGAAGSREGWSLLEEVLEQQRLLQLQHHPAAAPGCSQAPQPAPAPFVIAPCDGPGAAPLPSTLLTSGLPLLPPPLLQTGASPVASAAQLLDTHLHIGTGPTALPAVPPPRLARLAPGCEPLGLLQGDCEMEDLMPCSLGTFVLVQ
T1 sequence (Q9NQU5 whole entry): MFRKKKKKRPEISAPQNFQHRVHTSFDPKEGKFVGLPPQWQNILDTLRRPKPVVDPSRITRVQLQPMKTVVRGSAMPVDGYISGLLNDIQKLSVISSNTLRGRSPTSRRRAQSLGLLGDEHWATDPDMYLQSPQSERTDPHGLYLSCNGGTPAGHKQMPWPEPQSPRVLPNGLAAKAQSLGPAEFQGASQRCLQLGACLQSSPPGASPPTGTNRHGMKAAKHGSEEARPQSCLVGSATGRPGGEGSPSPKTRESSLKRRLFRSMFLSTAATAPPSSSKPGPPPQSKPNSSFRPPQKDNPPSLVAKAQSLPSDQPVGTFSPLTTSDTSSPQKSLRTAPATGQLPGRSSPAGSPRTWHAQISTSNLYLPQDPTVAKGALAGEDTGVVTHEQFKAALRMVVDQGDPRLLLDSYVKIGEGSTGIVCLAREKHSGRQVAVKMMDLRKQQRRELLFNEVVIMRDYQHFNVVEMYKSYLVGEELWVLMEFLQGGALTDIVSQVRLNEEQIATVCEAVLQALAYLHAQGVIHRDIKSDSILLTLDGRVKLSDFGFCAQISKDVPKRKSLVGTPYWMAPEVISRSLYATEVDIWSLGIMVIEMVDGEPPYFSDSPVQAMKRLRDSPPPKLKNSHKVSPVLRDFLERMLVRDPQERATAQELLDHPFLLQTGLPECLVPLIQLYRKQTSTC

Turning to `CCN1CCN(Cc2ccc(NC(=O)c3ccc(C)c(NC(=O)c4cncc(-c5cccs5)c4)c3)cc2C(F)(F)F)CC1` [ALW-II-41-27], the remaining binding at 10 µM on KinomeScan kinase panel [1] was over 30%; at KinomeScan kinase panel [2] (kinase TNK2, 10 µM), 2.1%; at KinomeScan kinase panel [3] it was 29%; at KinomeScan kinase panel [4], over 30%; on KinomeScan kinase panel [5] it was over 30%; on KinomeScan kinase panel [6] (PYK2, 10 µM) it was 2.4%. Also, the remaining binding at 10 µM at KinomeScan kinase panel [8] was found to be 1.8%. For the same molecule, the “score (%)” value at KinomeScan kinase panel [7] (kinase SIK) was 0.2%.
On to `CCN1CCN(Cc2ccc(NC(=O)c3ccc(C)c(/C=C/c4cnc5[nH]ccc5c4Cl)c3)cc2C(F)(F)F)CC1` [HG-6-63-01, (E)-3-(2-(4-chloro-1H-pyrrolo[2,3-b]pyridin-5-yl)vinyl)-N-(4-((4-ethylpiperazin-1-yl)methyl)-3-(trifluoromethyl)phenyl)-4-methylbenzamide], for which the remaining binding at 10 µM at KinomeScan kinase panel [1] is over 30%; at KinomeScan kinase panel [2] (TNK2, 10 µM), 0.5%; on KinomeScan kinase panel [3], over 30%; on KinomeScan kinase panel [4], 30%; on KinomeScan kinase panel [5], over 30%; on KinomeScan kinase panel [6] (PTK2B, 10 µM), 5.5%. Besides, on KinomeScan kinase panel [8], the remaining binding at 10 µM stood at 0.9%. Further, the “score (%)” value on KinomeScan kinase panel [7] (SNF1LK) was 0.3%.
In the case of `CCN1CCN(Cc2ccc(NC(=O)c3ccc(C)c(C#Cc4cccnc4)c3)cc2C(F)(F)F)CC1` [XMD15-44], the remaining binding at 10 µM at KinomeScan kinase panel [1] came out at 100%; on KinomeScan kinase panel [2] (kinase TNK2, 10 µM) it was 11%; at KinomeScan kinase panel [3] it was 2.5%; on KinomeScan kinase panel [4] it was 3.3%; at KinomeScan kinase panel [5] it was 1.8%; at KinomeScan kinase panel [6] (kinase PYK2, 10 µM), 0.4%. At KinomeScan kinase panel [8], the remaining binding at 10 µM amounted to 0.3%. For the same molecule, the “score (%)” value at KinomeScan kinase panel [7] (kinase SIK) is 0.45%.
